“Also recorded” adds a separate entry of the source.
Legend:
R3 fibrils [1] = target: T1, R3 fibrils (Homo sapiens, UniProt P10636); assay: TEM of heparin-induced R3 fibrils; format: biochemical
T1 construct: R3 (^306VQIVYK PVDLSK VTSKCG SLGNIH HKPGGG Q^336) and rabbit anti-tau antibody were purchased from MuJin; purchased MuJin
Experimental: To further confirm the inhibitory efficiency of 4GA and 2GA on R3 fibril formation, the morphology of heparin-induced R3 aggregates at different conditions was characterized by transmission electron microscopy (TEM) (Fig. 4C). After incubation, the mature fibrils of R3 were interweaved and serried in the absence of 4GA or 2GA (0 μM).
(§1) For detecting the inhibitory efficiency of inhibitors, 15 μM R3, 3.8 μM heparin, and 4GA/2GA/4ME/GA (0, 10, and 40 μM) in 50 mM Tris–HCl buffer (pH 7.4) was incubated at 37 °C for 3 h, respectively. For exploring the effect of Cu^2+ on R3 aggregation, 15 μM R3, 3.8 μM heparin was mixed in the presence or the absence of 3.8 μM Cu^2+ in 50 mM Hepes buffer (pH 7.4). Then, 10 μM 4GA/2GA/4ME/GA was added to the solution. After 3 h incubation, 10 μl of each solution was applied on a carbon support membrane, followed by 10 μl of 2% uranyl acetate, and dried at room temperature. The operation was carried out on transmission electron microscope (JEM-2100, provieded by JEOL).

Solubility = format: physicochemical; conditions: for solubility in polar organic solvent: DMSO
From the text: Therefore, in the following experiments, they were first dissolved in DMSO and further diluted in an excess of buffer. […] Logically, 1,4,7,10-tetramethyl-1,4,7,10-tetraazacyclododecane (4ME) and GA (compound structure was shown in Fig. S1) are considered as the precursor of 4GA and 2GA and therefore used as a comparative study to confirm whether the ancillary ligand had any effect on aggregation.

R3 fibrils [2] = target: T1, R3 fibrils; assay: TEM of Cu2+-promoted R3 fibrils; format: biochemical; conditions: R3 15 μM, Cu2+ 3.8 μM, heparin 3.8 μM, compound 10 μM, Hepes pH 7.4
Experimental: However, the influence of 4ME or GA on Cu^2+-promoted R3 aggregation was small, because these compounds could only suppress Cu^2+ promotion effect; their effect on R3 self-aggregation was almost negligible.
as §1

[3] = UV-visible titration and Job's plot, coordination to Cu2+; format: physicochemical; conditions: for Job's plot isosbestic point, mol fraction of Cu2+: 5 mM total in DMSO; for coordination stoichiometry with Cu2+: Job's method, 5 mM in DMSO
Experimental: The UV–visible spectrum was used to reveal their coordination properties to Cu^2+. […] The increased absorption at 481 nm and 475 nm (Fig. 3, A and B, inset) definitely indicated the complexation of 4GA–Cu^2+ and 2GA–Cu^2+, respectively. The coordination stoichiometry of 4GA and 2GA with Cu^2+ was determined by Job’s plot analysis (Fig. 3, C and D). […] However, their macrocyclic precursors (cyclen and N-methylated cyclen 2ME]) were evaluated to coordinate with Cu^2+ by 1:1 mode (Fig. S9). The different coordination mode with Cu^2+ was supposed to be the synergistic coordination effects of galloyl side arms, in addition to the central azacrown structure.
The chelating studies were performed on Hitachi U-2900 UV–visible spectrophotometer with a 10-mm quartz cell. For titration experiment, the UV absorption of test compound (1 mM in DMSO) was recorded in the presence of CuCl2 (0–6 equivalents of Cu^2+ for 4GA, 0–5 equivalents of Cu^2+ for 2GA, respectively). For Job’s method, a series of solution was prepared in which the total concentration of compound and Cu^2+ was fixed (5 mM in DMSO), but their proportions of ether component varied between 0% and 100%, and the UV spectra were analyzed to determine the ratio of ligand–Cu^2+.
Figure S9. The chemical structure of cyclen derivates (upper), and the determination of the stoichiometry of complex (A) cyclen-Cu^2+, (B) 1ME-Cu^2+, (C) 2ME-Cu^2+, (D) 3ME-Cu^2+, (E) 4ME-Cu^2+ (5 mM) by Job’s method.

tau peptide R3 = target: T2, tau peptide R3 (Homo sapiens, UniProt P10636); assay: Endogenous (tyrosine) fluorescence quenching of tau peptide R3; format: binding; conditions: for n (binding sites): Hill equation
T2 construct: R3 (^306VQIVYK PVDLSK VTSKCG SLGNIH HKPGGG Q^336) and rabbit anti-tau antibody were purchased from MuJin; purchased MuJin
T2 sequence (P10636 623-653 limits assumed): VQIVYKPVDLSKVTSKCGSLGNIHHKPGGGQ
Experimental: The affinity of the synthetic compounds toward tau peptide was evaluated by endogenous fluorescence quenching experiment. The N-galloyl-substituted azacrown (ligand) can quench the endogenous fluorescence of tyrosine residues (306–310, VQIVY) on R3 peptide chain (receptor), if there exists a definite interaction between the ligand and the receptor. With titration of 4GA or 2GA (ligands) into the solution of tau peptide R3 (receptors), the endogenous fluorescence (at 310 nm) of tyrosine residues on R3 peptide chain was gradually quenched (data provided in ESI, Fig. S11). The data were then fitted by the Stern−Volmer formula to give the quenching constants (Kb) (Fig. S12). The quenching constants (Kb) and binding sites (n) of 4GA or 2GA to R3 peptide in the temperatures 25 °C and 37 °C are presented in Table 1.
The structural changes of R3 protein upon binding to 4GA/2GA/GA was documented by fluorescence spectroscopy. Briefly, various concentrations of 4GA/2GA/GA (0, 5, 10, 15, 20, 30, 40, 60, or 80 μM) were added to the 15 μM R3 protein in 50 mM Tris–HCl buffer (pH 7.4) in a 10-mm quartz cuvette. The measurement was carried out by Hitachi F-7000 equipped with a circulating water bath at 25 and 37 °C. The fluorescence spectra of R3 protein were documented from 290 nm to 380 nm with 275 nm excitation. The widths of excitation and emission slit were set at 5 and 10 nm, respectively.
The Stern–Volmer (Formula 4.1) was used to determine the quenching mechanism, either static or dynamic quenching:(4.1) F0/F=1+KSV[Q] where F0 and F are the fluorescence intensity without and with quencher, [Q] means the concentration of quencher, and Ksv is the Stern–Volmer constant.
Furthermore, the binding constant (Kb) and number of the binding sites (n) of quencher on R3 protein could be calculated by Hill (Equation 4.2):(4.2) log[F0−F/F]=logKb+nlog[Q]
The tyrosine fluorescence quenching experiment was carried out to determine the binding ability between inhibitors and R3 protein. […] Furthermore, this experiment is reasonable given the relatively weak fluorescence intensity of 4GA, 2GA, and GA (Figure S10). With titration of inhibitors into the solution of R3 protein, the fluorescence of tyrosine residues was gradually quenched in two temperatures of 25°C and 37°C, implying that 4GA or 2GA can interact with R3.
Fluorescence quenching usually proceeds through either dynamic quenching or static quenching. Dynamic quenching refers to the contact process between excited fluorophore and quencher, while static quenching refers to the formation of fluorophore-quencher complexes. A series of data processing about the fluorescence change of tyrosine residues at 25°C and 37°C was utilized to figure out the binding constant. Compared to the standard Stern-Volmer curves, a minor positive deviation from linearity was observed by plotting F0/F versus concentration, indicating a mixture of dynamic and static patterns (Figure S11). Furthermore, the Hill equation was used to calculate the quenching constant and binding sites of inhibitors on R3 protein (Figure S12).

T1 sequence (P10636 623-653 limits assumed): as above

SMILES: CN1CCN(C(=O)c2cc(O)c(O)c(O)c2)CCN(C)CCN(C(=O)c2cc(O)c(O)c(O)c2)CC1 [2GA, (4,10-dimethyl-1,4,7,10-tetraazacyclododecane-1,7-diyl)bis((3,4,5-trihydroxyphenyl)methanone)]
- R3 fibril morphology (TEM) (R3 fibrils [1]; 10 μM inhibitor): smaller numbers of short R3 filaments
- solubility in water (Solubility): slightly soluble in water
- solubility in polar organic solvent (Solubility): soluble in polar organic solvent such as dimethyl sulfoxide (DMSO)
- morphology of Cu2+-promoted R3 fibrils (TEM) (R3 fibrils [2]): the resulting filaments become sparse and small
- Job's plot isosbestic point, mol fraction of Cu2+ [3]: 0.7 mol fraction
- coordination stoichiometry with Cu2+ [3]: can bind with two Cu^2+ ions
- n (binding sites) (tau peptide R3; 25 °C): 1.14 ± 0.05
- n (binding sites) (tau peptide R3; 37 °C): 1.32 ± 0.04

SMILES: O=C(c1cc(O)c(O)c(O)c1)N1CCN(C(=O)c2cc(O)c(O)c(O)c2)CCN(C(=O)c2cc(O)c(O)c(O)c2)CCN(C(=O)c2cc(O)c(O)c(O)c2)CC1 [4GA, (1,4,7,10-tetraazacyclododecane-1,4,7,10-tetrayl)tetrakis((3,4,5-trihydroxyphenyl)methanone)]
- R3 fibril morphology (TEM) (R3 fibrils [1]; 10 μM inhibitor): smaller numbers of short R3 filaments
- solubility in water (Solubility): slightly soluble in water
- solubility in polar organic solvent (Solubility): soluble in polar organic solvent such as dimethyl sulfoxide (DMSO)
- morphology of Cu2+-promoted R3 fibrils (TEM) (R3 fibrils [2]): the resulting filaments become sparse and small
- Job's plot isosbestic point, mol fraction of Cu2+ [3]: 0.7 mol fraction
- coordination stoichiometry with Cu2+ [3]: can bind with two Cu^2+ ions
- n (binding sites) (tau peptide R3; 25 °C): 1.33 ± 0.05
- n (binding sites) (tau peptide R3; 37 °C): 1.54 ± 0.07

SMILES: CN1CCN(C)CCN(C)CCN(C)CC1 [4ME, 1,4,7,10-tetramethyl-1,4,7,10-tetraazacyclododecane, reference compound]
- morphology of Cu2+-promoted R3 fibrils (TEM) (R3 fibrils [2]): small

SMILES: O=C(O)c1cc(O)c(O)c(O)c1 [GA, gallic acid, reference compound]
- R3 fibril morphology (TEM) (R3 fibrils [1]; even at high concentrations): could hardly change the number and length of R3 fibrils
- morphology of Cu2+-promoted R3 fibrils (TEM) (R3 fibrils [2]): small
- binding ability / interaction with R3 (tau peptide R3; 25 °C and 37 °C): no significant interaction between GA and R3; also recorded: negligible binding ability
